The record followed here is article PMC6270614 (Molecules, 2013).

Structures are written as SMILES. Where two headings read alike, the source gives them in different places.

In data set [1] the target is human cannabinoid CB1 receptor (Homo sapiens, UniProt P21554). In words: CB1 receptor radioligand ([3H]CP-55,940) displacement binding assay. To be noted: for inhibition at 1 µM: read-out: displacement of [3H]CP-55,940 in the preliminary screen (printed in the CB1 Ki column). The procedure: In all cases, Ki values were calculated by applying the Cheng-Prusoff equation [34] to the IC50 values (obtained by GraphPad, GraphPad Software, Inc., La Jolla, CA, USA) for the displacement of the bound radioligand by increasing concentrations of the test compounds (after three separate experiments for each compound).
Chain of human cannabinoid CB1 receptor (P21554 whole entry): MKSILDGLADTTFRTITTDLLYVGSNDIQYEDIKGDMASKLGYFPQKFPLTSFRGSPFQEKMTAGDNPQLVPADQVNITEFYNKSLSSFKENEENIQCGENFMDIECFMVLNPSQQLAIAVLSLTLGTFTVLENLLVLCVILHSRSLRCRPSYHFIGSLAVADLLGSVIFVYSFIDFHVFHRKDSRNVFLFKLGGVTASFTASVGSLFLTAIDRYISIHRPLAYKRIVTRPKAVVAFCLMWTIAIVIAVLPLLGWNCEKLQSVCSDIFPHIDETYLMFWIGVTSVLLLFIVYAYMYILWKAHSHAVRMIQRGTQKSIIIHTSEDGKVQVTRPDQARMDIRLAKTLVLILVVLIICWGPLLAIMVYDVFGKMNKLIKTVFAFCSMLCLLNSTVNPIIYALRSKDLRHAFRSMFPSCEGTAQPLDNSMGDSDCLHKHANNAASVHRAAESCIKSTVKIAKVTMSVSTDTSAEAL
For orientation: In a radioligand displacement assay an active substance lowers the binding of a labelled ligand.

Where [2] appears, read: Experimental activity (pIC50, M), CoMFA training and test set input.
[3] abbreviates: CB1 (Ki, nM), displacement of 0.5 nM [3H]CP-55,940, means ± SEM, n = 3, Cheng-Prusoff from IC50.
[4] abbreviates: IC50 (CB1 displacement), displacement of [3H]CP-55,940.
[5] abbreviates: CoMFA training and test set input, read-out: Experimental activity (pIC50) (converted).

By melting point is commonly meant the temperature of the solid-liquid transition. For orientation: Ki means the dissociation constant of the complex between target and ligand, obtained from inhibition or displacement.

With `O=C(c1cccc2ccccc12)n1c(-c2ccccn2)nc2ccccc21` [Compound 10, Naphthalen-1-yl(2-(pyridin-2-yl)-1H-benzo[d]imidazol-1-yl)methanone], the inhibition at 1 µM in data set [1] is less than 50%.

The molecule `O=C(c1cccc2ccccc12)n1c(-c2ccccn2)nc2cc(F)ccc21` [Compound 11, (5-Fluoro-2-(pyridin-2-yl)-1H-benzo[d]imidazol-1-yl)(naphthalen-1-yl)methanone] came in with a melting point of 167.2 to 167.9 °C. Moreover, the inhibition at 1 µM in data set [1] is less than 50%.

For the molecule `O=C(c1cccc2ccccc12)n1c(-c2ccccn2)nc2ccc(F)cc21` [Compound 12, (6-Fluoro-2-(pyridin-2-yl)-1H-benzo[d]imidazol-1-yl)(naphthalen-1-yl)methanone], the melting point lay within 177.2 to 178 °C. In addition, in data set [1], the inhibition at 1 µM was less than 50%.

With `Cc1cc2nc(-c3ccccn3)n(C(=O)c3cccc4ccccc34)c2cc1C` [Compound 13, (5,6-Dimethyl-2-(pyridin-2-yl)-1H-benzo[d]imidazol-1-yl)(naphthalen-1-yl)methanone], the melting point lay in the range of 167.2 to 168 °C. For the same molecule, the inhibition at 1 µM in data set [1] is less than 50%.

Turning to `O=C(c1cccc2ccccc12)n1c(-c2cccnc2)nc2ccccc21` [Compound 14, Naphthalen-1-yl-(2-(pyridin-3-yl)-1H-benzo[d]imidazol-1-yl)methanone], the melting point was in the range of 148 to 148.1 °C. Also, the IC50 in data set [1] (setting [2]) was 180 nM.

`O=C(c1cccc2ccccc12)n1c(-c2cccnc2)nc2cc(F)ccc21` [Compound 15, (5-Fluoro-2-(pyridin-3-yl)-1H-benzo[d]imidazol-1-yl)(naphthalen-1-yl)methanone]: in data set [1] (setting [3]), the Ki is 534 nM. Moreover, the IC50 in data set [1] (setting [2]) is 979 nM.

Consider `O=C(c1cccc2ccccc12)n1c(-c2cccnc2)nc2ccc(F)cc21` [Compound 16, (6-Fluoro-2-(pyridin-3-yl)-1H-benzo[d]imidazol-1-yl)(naphthalen-1-yl)methanone], for which the inhibition at 1 µM in data set [1] is less than 50%.

The molecule `Cc1cc2nc(-c3cccnc3)n(C(=O)c3cccc4ccccc34)c2cc1C` [Compound 17, (5,6-Dimethyl-2-(pyridin-3-yl)-1H-benzo[d]imidazol-1-yl)(naphthalen-1-yl)methanone] yielded a melting point of 177.2 to 178 °C. In data set [1], the inhibition at 1 µM is less than 50%.

`O=C(c1cccc2ccccc12)n1c(-c2ccncc2)nc2ccccc21` [Compound 18, Naphthalen-1-yl-(2-(pyridin-4-yl)-1H-benzo[d]imidazol-1-yl)methanone] displayed a melting point of 155 to 156.1 °C. Also, the Ki in data set [1] (setting [3]) stood at 37.8 ± 5.3 nM. In data set [1] (setting [2]), this molecule had an IC50 of 69.3 nM.

In turn, `O=C(c1cccc2ccccc12)n1c(-c2ccncc2)nc2cc(F)ccc21` [Compound 19, (5-Fluoro-2-(pyridin-4-yl)-1H-benzo[d]imidazol-1-yl)(naphthalen-1-yl)methanone] registered a melting point of 180.7 to 181.7 °C. Also, the inhibition at 1 µM in data set [1] is less than 50%.

With `O=C(c1cccc2ccccc12)n1c(-c2ccncc2)nc2ccc(F)cc21` [Compound 20, (6-Fluoro-2-(pyridin-4-yl)-1H-benzo[d]imidazol-1-yl)(naphthalen-1-yl)methanone], the melting point was 190.4 to 190.9 °C. For the same molecule, the inhibition at 1 µM in data set [1] is less than 50%.

In turn, `Cc1cc2nc(-c3ccncc3)n(C(=O)c3cccc4ccccc34)c2cc1C` [Compound 21, (5,6-Dimethyl-2-(pyridin-4-yl)-1H-benzo[d]imidazol-1-yl)(naphthalen-1-yl)methanone] had a melting point of 167.2 to 168 °C. This molecule also displayed a Ki in data set [1] (setting [3]) of 3.95 ± 0.8 nM. Moreover, the IC50 in data set [1] (setting [2]) was 7.24 nM. Further, the IC50 in data set [1] (setting [4]) was less than 10 nM.

As to `O=C(c1ccc2ccccc2c1)n1c(-c2ccccn2)nc2ccccc21` [Compound 22, Naphthalen-2-yl(2-(pyridin-2-yl)-1H-benzo[d]imidazol-1-yl)methanone], the melting point is 145 to 146 °C. For the same molecule, the inhibition at 1 µM in data set [1] is less than 50%.

For the molecule `O=C(c1ccc2ccccc2c1)n1c(-c2ccccn2)nc2ccc(F)cc21` [Compound 23, (6-Fluoro-2-(pyridin-2-yl)-1H-benzo[d]imidazol-1-yl)(naphthalen-2-yl)methanone], the affinity in data set [1] (setting [3]) corresponds to a Ki of 11.4 ± 0.9 nM. Moreover, the figures for the IC50 in data set [1] (setting [2]) and in data set [1] (setting [4]) were 20.9 nM and roughly 20 nM, respectively.

Turning to `Cc1cc2nc(-c3ccccn3)n(C(=O)c3ccc4ccccc4c3)c2cc1C` [Compound 24, (5,6-Dimethyl-2-(pyridin-2-yl)-1H-benzo[d]imidazol-1-yl)(naphthalen-2-yl)methanone], the melting point is 168.7 to 169.6 °C. Also, in data set [1] (setting [3]), affinity was put at a Ki of 28.1 ± 2.3 nM. The IC50 in data set [1] (setting [2]) is 51.5 nM.

For the molecule `O=C(c1ccc2ccccc2c1)n1c(-c2cccnc2)nc2ccccc21` [Compound 25, Naphthalen-2-yl(2-(pyridin-3-yl)-1H-benzo[d]imidazol-1-yl)methanone], the melting point is 148 to 148.6 °C. Further, the inhibition at 1 µM in data set [1] is less than 50%.

`O=C(c1ccc2ccccc2c1)n1c(-c2cccnc2)nc2cc(F)ccc21` [Compound 26, (5-Fluoro-2-(pyridin-3-yl)-1H-benzo[d]imidazol-1-yl)(naphthalen-2-yl)methanone]: the IC50 in data set [1] (setting [5]) is 10400 nM. The Ki in data set [1] (read-out: CB1 (Ki)) worked out at 5700 ± 200 nM.

`O=C(c1ccc2ccccc2c1)n1c(-c2cccnc2)nc2ccc(F)cc21` [Compound 27, (6-Fluoro-2-(pyridin-3-yl)-1H-benzo[d]imidazol-1-yl)(naphthalen-2-yl)methanone] had a melting point of 167.2 to 167.7 °C. Further, the IC50 in data set [1] (setting [5]) was 1770 nM. In addition, the Ki in data set [1] (read-out: CB1 (Ki)) turned out to be 963 ± 155 nM.

Molecule `Cc1cc2nc(-c3cccnc3)n(C(=O)c3ccc4ccccc4c3)c2cc1C` [Compound 28, (5,6-Dimethyl-2-(pyridin-3-yl)-1H-benzo[d]imidazol-1-yl)(naphthalen-2-yl)methanone] showed a melting point of 166.7 to 166.9 °C. This molecule returned a Ki in data set [1] (setting [3]) of 567 ± 27.8 nM. In data set [1] (setting [2]), the IC50 was 1040 nM.

The molecule `O=C(c1ccc2ccccc2c1)n1c(-c2ccncc2)nc2ccccc21` [Compound 29, Naphthalen-2-yl(2-(pyridin-4-yl)-1H-benzo[d]imidazol-1-yl)methanone] showed a melting point of 145 to 146.1 °C. Also, the IC50 in data set [1] (setting [5]) is 8220 nM. Also, the Ki in data set [1] (read-out: CB1 (Ki)) was found to be 4490 ± 133 nM.

In data set [1] (setting [3]), `O=C(c1ccc2ccccc2c1)n1c(-c2ccncc2)nc2ccc(F)cc21` [Compound 31, (6-Fluoro-2-(pyridin-4-yl)-1H-benzo[d]imidazol-1-yl)(naphthalen-2-yl)methanone] came in with a Ki of 5.55 ± 0.9 nM. The IC50 was 10.2 nM in data set [1] (setting [2]) and less than 10 nM in data set [1] (setting [4]).

In the case of `Cc1cc2nc(-c3ccccn3)n(Cc3ccc4ccccc4c3)c2cc1C` [Compound 48, 5,6-Dimethyl-1-(naphthalen-2-ylmethyl)-2-(pyridin-2-yl)-1H-benzo[d]imidazole], the Ki in data set [1] (setting [3]) is 47.4 ± 11.1 nM. In addition, the IC50 in data set [1] (setting [2]) was 86.9 nM.

With `Fc1ccc2nc(-c3cccnc3)n(Cc3ccc4ccccc4c3)c2c1` [Compound 51, 6-Fluoro-1-(naphthalen-2-ylmethyl)-2-(pyridin-3-yl)-1H-benzo[d]imidazole], the Ki in data set [1] (setting [3]) stood at 10.7 ± 2.8 nM. Also, the IC50 in data set [1] (setting [2]) is 19.6 nM; in data set [1] (setting [4]), roughly 20 nM.

`c1ccc2cc(Cn3c(-c4ccncc4)nc4ccccc43)ccc2c1` [Compound 53, 1-(Naphthalen-2-ylmethyl)-2-(pyridin-4-yl)-1H-benzo[d]imidazole]: the IC50 in data set [1] (setting [5]) is 851 nM. The Ki in data set [1] (read-out: CB1 (Ki)) is 464 ± 30.3 nM.
